Assays:
Assay type in all cases: biochemical
[1] = molecular target: T1, hPDE4D (Homo sapiens, UniProt Q08499); assay: PDE4 inhibition assay (IC50), Experimental Example 3; conditions: hPDE4D; read-out: PDE inhibition assay IC50, PDE4
T1 construct: purchased SB Drug Discovery
Summary of the method: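 Recombinant human enzymes incubated with compound and 3 nmol/L cAMP (final) in Tris-HCl pH 7.5 buffer with MgCl2, BSA, DTT, 2% DMSO final, 60 min at room temperature. Residual cAMP measured by TR-FRET (LANCE Ultra), reaction stopped with 0.5 mmol/L IBMX. IC50 from inhibition relative to no-compound (0%) and no-enzyme (100%) controls.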

[2] = molecular target: T2, hPDE7B (Homo sapiens, UniProt Q9NP56); assay: PDE7 selectivity test (Ki value), Experimental Example 2: hPDE7B; conditions: Ki from IC50 by Cheng-Prusoff, read-out: PDE inhibition constant Ki, PDE7
T2 construct: made in house; host or cells: COS-7 cells
T2 sequence (Q9NP56 whole entry): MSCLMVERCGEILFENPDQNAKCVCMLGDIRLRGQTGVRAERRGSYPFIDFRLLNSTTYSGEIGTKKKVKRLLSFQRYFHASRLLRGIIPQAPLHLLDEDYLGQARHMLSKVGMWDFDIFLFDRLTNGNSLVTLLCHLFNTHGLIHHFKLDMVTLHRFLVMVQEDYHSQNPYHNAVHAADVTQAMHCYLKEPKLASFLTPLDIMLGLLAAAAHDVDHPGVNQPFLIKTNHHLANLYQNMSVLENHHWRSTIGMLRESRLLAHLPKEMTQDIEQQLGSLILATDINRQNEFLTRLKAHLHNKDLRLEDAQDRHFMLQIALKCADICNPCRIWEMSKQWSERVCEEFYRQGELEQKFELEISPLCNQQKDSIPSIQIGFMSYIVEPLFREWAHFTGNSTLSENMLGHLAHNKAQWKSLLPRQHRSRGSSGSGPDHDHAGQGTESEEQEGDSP
Procedure: (§1) hPDE1A, hPDE2A, hPDE3A, hPDE4D, hPDE5A, and hPDE8B were purchased from SB Drug Discovery. hPDE7B was isolated by the same method as [Method for preparing samples 1], and hPDE9A, hPDE10A, and hPDE11A were isolated by the same method as hPDE7B, i.e., isolated from COS-7 cells transfected with plasmids encoding each PDE. PDE6 was purified and isolated from bovine retina (bovine PDE6).
(§2) Prior to the calculation of Ki value, Km value of each PDE against cAMP or cGMP was calculated. Each PDE diluted with an assay buffer so that it would have an appropriate enzyme activity, and six or more concentrations of cAMP or cGMP were reacted at room temperature for 60 minutes. Regarding PDE using cAMP as a substrate, PDELight (trademark) HTS cAMP phosphodiesterase Kit (Lonza) was used to measure a degradation product, 5′-AMP. Also, regarding PDE using cGMP as a substrate, […] of perchloric acid was added to the mixture to stop the reaction, and the resulting mixture was subjected to LC-MS/MS to measure the residual cGMP concentration. The amount of degraded substrate in each substrate concentration was calculated, the concentration of the added substrate was plotted on the horizontal axis, the amount of degraded substrate was plotted on the vertical axis, and Km value was calculated by non-linear regression on the basis of Michaelis-Menten equation. Km value (substrate) of each PDE was hPDE1A: 4.3 (cGMP), hPDE2A: 36 (cAMP), hPDE3A: 0.11 (cAMP), hPDE4D: 0.90 (cAMP), hPDE5A: 3.9 (cGMP), bovine PDE6:9.8 (cGMP), hPDE7B: 0.015 (cAMP), hPDE8B: 0.63 (cAMP), hPDE9A: 0.0037 (cGMP), hPDE10A: 0.051 (cAMP), and hPDE11A: 1.4 (cAMP) μmol/L, respectively.
(§3) Next, PDE inhibition assay of a compound was carried out using each PDE. The PDE inhibition assay was basically carried out by the same enzyme reaction method as [Assay procedure 1], and the degraded amount of cAMP or cGMP was measured by the same method as [Assay procedure 2]. In the assay, a concentration approximated to Km value of each PDE against cAMP or cGMP was used as a substrate concentration. Meanwhile, regarding hPDE5A, hPDE8B, and hPDE9A, IMAP (trademark) FP Phosphodiesterase Evaluation Assay Kit (Molecular Devices) was used to measure the degradation of FAM-cAMP or FAM-cGMP by fluorescence depolarization technique.
(§4) Each compound was evaluated at six or more concentrations with common ratio 10. Each inhibition rate was calculated according to <Method for data calculation 1>, and then each IC50 value was calculated by sigmoid regression. The resulting IC50 value was used in the following Cheng-Prusoff equation to calculate each Ki value. Ki=IC50/(1+[S]/Km), wherein [S] represents a substrate concentration used

[3] = molecular target: T3, hPDE3A (Homo sapiens, UniProt Q14432); assay: PDE7 selectivity test (Ki value), Experimental Example 2: hPDE3A; conditions: Ki from IC50 by Cheng-Prusoff, read-out: PDE inhibition constant Ki, PDE3
T3 construct: purchased SB Drug Discovery
T3 sequence (Q14432 whole entry): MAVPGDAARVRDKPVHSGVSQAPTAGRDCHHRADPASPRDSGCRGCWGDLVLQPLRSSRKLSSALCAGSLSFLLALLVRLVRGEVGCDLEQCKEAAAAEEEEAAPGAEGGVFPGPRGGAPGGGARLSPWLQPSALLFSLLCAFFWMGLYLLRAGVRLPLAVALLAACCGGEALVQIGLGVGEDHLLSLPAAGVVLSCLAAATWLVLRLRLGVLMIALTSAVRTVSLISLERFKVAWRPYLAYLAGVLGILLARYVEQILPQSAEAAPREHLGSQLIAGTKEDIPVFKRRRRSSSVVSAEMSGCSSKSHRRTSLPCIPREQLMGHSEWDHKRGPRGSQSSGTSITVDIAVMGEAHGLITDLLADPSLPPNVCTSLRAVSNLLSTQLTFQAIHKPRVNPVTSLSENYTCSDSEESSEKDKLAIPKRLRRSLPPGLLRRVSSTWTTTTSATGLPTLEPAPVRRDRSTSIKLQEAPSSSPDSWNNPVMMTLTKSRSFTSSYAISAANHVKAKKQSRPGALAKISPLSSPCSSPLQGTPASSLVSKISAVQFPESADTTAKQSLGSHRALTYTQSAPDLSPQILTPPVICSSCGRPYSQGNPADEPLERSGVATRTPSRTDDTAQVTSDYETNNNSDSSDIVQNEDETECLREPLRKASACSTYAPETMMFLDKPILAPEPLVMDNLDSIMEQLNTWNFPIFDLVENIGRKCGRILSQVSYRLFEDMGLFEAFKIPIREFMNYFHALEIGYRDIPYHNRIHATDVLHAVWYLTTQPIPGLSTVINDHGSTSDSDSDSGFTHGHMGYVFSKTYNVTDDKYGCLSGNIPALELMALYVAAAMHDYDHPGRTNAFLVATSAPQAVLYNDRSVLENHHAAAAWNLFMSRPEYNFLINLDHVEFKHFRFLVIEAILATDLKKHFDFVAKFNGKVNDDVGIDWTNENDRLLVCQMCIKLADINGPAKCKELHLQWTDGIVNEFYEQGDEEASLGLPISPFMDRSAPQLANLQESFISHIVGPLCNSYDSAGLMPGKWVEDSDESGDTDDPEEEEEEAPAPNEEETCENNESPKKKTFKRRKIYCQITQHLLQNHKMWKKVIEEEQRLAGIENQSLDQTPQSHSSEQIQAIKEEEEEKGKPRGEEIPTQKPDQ
Procedure: as §1, §2, §3, §4

[4] = molecular target: T1, hPDE4D; assay: PDE7 selectivity test (Ki value), Experimental Example 2: hPDE4D; conditions: Ki from IC50 by Cheng-Prusoff, read-out: PDE inhibition constant Ki, PDE4
Procedure: as §1, §2, §3, §4

[5] = molecular target: T4, hPDE11A (Homo sapiens, UniProt Q9HCR9); assay: PDE7 selectivity test (Ki value), Experimental Example 2: hPDE11A; conditions: Ki from IC50 by Cheng-Prusoff, read-out: PDE inhibition constant Ki, PDE11
T4 construct: made in house; host or cells: COS-7 cells
T4 sequence (Q9HCR9 whole entry): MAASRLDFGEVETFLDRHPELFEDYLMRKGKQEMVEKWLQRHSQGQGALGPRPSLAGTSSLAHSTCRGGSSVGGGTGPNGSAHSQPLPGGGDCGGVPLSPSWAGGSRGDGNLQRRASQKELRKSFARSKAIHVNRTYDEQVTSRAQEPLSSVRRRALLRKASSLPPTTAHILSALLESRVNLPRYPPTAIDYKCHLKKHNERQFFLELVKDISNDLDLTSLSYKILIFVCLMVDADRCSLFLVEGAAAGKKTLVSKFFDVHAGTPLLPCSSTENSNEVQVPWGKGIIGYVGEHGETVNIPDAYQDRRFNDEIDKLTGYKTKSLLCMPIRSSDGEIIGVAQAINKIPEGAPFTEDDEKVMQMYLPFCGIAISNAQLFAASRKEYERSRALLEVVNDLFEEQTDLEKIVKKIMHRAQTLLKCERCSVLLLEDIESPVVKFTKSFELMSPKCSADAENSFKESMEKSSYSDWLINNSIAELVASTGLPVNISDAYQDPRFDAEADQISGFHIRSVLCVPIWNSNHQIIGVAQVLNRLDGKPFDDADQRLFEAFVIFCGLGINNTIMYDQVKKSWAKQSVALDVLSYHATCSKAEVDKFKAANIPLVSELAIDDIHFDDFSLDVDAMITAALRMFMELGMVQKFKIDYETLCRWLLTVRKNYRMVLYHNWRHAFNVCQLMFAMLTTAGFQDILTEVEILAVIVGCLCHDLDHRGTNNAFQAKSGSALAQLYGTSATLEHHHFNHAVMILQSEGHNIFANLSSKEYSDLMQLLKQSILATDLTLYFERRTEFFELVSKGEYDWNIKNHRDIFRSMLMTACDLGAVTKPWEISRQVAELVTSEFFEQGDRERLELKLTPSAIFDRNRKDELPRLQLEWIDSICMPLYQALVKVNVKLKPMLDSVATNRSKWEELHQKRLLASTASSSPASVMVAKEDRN
Procedure: as §1, §2, §3, §4

T1 sequence (Q08499 whole entry): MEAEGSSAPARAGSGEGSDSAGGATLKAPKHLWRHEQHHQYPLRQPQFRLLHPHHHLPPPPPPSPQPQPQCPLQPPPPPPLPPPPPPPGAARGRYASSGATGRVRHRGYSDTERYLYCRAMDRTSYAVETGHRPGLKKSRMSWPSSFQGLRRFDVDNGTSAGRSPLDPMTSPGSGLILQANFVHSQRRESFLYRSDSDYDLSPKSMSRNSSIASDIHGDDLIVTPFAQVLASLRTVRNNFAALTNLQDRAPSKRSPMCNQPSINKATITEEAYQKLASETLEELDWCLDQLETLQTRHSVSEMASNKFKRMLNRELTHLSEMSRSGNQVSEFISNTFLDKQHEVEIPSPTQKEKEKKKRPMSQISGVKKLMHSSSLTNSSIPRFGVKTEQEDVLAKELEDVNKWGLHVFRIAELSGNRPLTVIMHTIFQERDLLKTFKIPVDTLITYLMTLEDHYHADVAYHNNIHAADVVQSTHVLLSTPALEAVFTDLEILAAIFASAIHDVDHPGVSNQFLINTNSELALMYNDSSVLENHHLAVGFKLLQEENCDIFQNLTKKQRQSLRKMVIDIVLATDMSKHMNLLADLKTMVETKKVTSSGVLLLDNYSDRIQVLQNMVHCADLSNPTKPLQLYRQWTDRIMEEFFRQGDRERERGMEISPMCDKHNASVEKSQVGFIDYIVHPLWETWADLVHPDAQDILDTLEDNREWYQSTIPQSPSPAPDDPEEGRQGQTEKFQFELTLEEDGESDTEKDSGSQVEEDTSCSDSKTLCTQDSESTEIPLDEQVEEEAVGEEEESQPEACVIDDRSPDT

Row | SMILES | IC50 [1] | Ki [2] | Ki [3] | Ki [4] | Ki [5]
1 | CC1CCCCC1n1nnc2c(N)ncnc21 (single isomer, unassigned) [Example 191, 3-(cis-2-methylcyclohexyl)-3H-[1,2,3]triazolo[4,5-d]pyrimidin-7-amine] | 9.2 µM | 0.012 µM | > 52 µM | 4.2 µM | 
2 | C[C@@H]1CCC[C@H](c2nnc3c(N)nccn23)C1 [Example 204, 3-[(1S,3R)-3-methylcyclohexyl][1,2,4]triazolo[4,3-a]pyrazin-8-amine] | 1.51 µM | 0.003 µM | 43 µM | 1.2 µM | 46 µM

Now from value to compound:

Row | IC50 [1] | Ki [2] | Ki [3] | Ki [4] | Ki [5] | SMILES
3 | 7.82 µM | 0.031 µM | > 52 µM | 4.4 µM | 29 µM | Nc1ncnc2c1nnn2C1CCCCC1 [Example 3, 3-cyclohexyl-3H-[1,2,3]triazolo[4,5-d]pyrimidin-7-amine]
4 | 0.54 µM | 0.027 µM | > 5.2 µM | 0.22 µM | > 5 µM | Cc1nc(N)c2nnn(C3CCCCC3)c2n1 [Example 4]
5 | 6.22 µM | 0.031 µM | > 5.2 µM | > 4.8 µM | > 5 µM | Nc1nccn2c(C3CCCCC3)nnc12 [Example 141, 3-cyclohexyl[1,2,4]triazolo[4,3-a]pyrazin-8-amine]
